Assay results reported in patent publication US12241094B2, “Phenazine degrading agents and related compositions, methods and systems for interfering with viability of bacteria” (priority 2016, dated 2025).
Like-named read-outs stand apart in the source and are kept apart here. Marks after values point to notes of the source that are not given here.

Experiments:
P. aeruginosa biofilm [1] = assay: Microcolony number and size in 5 hour biofilms on succinate minimal medium; type: cell-based; details: 100 μM 1-OHPHZ or 0.5 μg mL-1 PodA
Description: FIGS. 24A-C show charts and images illustrating results of exemplary experiments showing that PodA and 1-OH-PHZ inhibit the early stages of P. aeruginosa biofilm formation on succinate minimal medium. […] Numbers are averages and SD from 8 biological replicates.

[2] = Kidani 1958; cited from earlier work
Pa PA14 biofilm = assay: Biofilm biomass by DAPI intensity (Example 7); type: cell-based, P. aeruginosa
Experimental: In this example, to check for an effect of PodA or 1-OH-PHZ on biofilm development, Pa PA14 was grown in 8-well chambered microscope slides designed for biofilm imaging, as previously reported (Das et al. (2015) Sci Rep. 5:8398). Overnight cultures of Pa PA14 were diluted to a starting optical density of 0.25 and grown directly on the slides (volume of 250 μl per chamber). After 5 h incubation at 37° C., planktonic cells were rinsed from the slide and remaining cells were stained with DAPI. Biofilm biomass was quantified by DAPI intensity on a Leica confocal microscope, with LAS X software. Pa PA14 incubated in the presence of 1 μM PodA or 100 μM 1-OHPHZox had ˜50% the biofilm biomass of Pa PA14 alone (FIG. 20A).

[3] = oxidized form, values from references a, c, d; cited from earlier work
[4] = tested on: Pa PA14 biofilm transcriptome; assay: RNASeq transcriptome of biofilm cultures; type: cell-based, P. aeruginosa; details: 5 h
Experimental: Because 1-OH-PHZ induces iron starvation in A. fumigatus (Briard et al. (2015) Scientific Reports. 2015; 5), it was speculated that the abrogation of biofilm development in P. aeruginosa grown in the presence of either PodA or 1-OH-PHZox may be mediated by a response to Fe-limitation. To test this idea, changes to the transcriptome of Pa PA14 by RNASeq were assessed. After 5 h of incubation in the presence of PodA (1 μM), 1-OH-PHZ (200 μM) or PYO (200 μM), RNA was prepared from 1 ml of biofilm cultures (250 μl pooled from 4 static biofilm chambers) for analysis on an Illumina HiSeq 2500 sequencer at the Millard and Muriel Jacobs Genetics and Genomics Laboratory, as previously described (Babin et al. (2016) Proc Natl Acad Sci USA. 113(5):E597-E605; Kreamer et al. (2015) M Bio. 2015; 6(2):e02549. Epub 2015/02/26). This experiment was designed to identify genes that were likely to be specifically affected by PodA's transformation of PYO to 1-OH-PHZ under a condition that inhibited biofilm formation (FIG. 20A). As a reference for genes responsive to iron availability, these transcriptomes were compared to those previously found to respond to Fe(II) shock (Kreamer et al. (2015) M Bio. 2015; 6(2):e02549. Epub 2015/02/26).

P. aeruginosa biofilm [5] = assay: Optical density of P. aeruginosa biofilm; type: cell-based; details: PodA vs inactive E154A; 1-OH-PHZ vs 1% DMSO
PA14 [6] = assay: Redox cycles over 7 days and support of survival (Table 1); type: cell-based, P. aeruginosa
PA14 [7] = assay: Reduction of redox-active compounds by PA14 (Table 1); type: cell-based, P. aeruginosa
[8] = tested on: P. aeruginosa planktonic culture; assay: Phenazines in planktonic P. aeruginosa cultures (HPLC); type: cell-based; details: 24 hours
Description: Product was cut with DpnI to remove WT vector, phosphorylated with T4 polynucleotide kinase, and ligated to generate a circular mutant protein expression construct. For D72N and Y156F mutants, DNA fragments encoding the mutation were synthesized (Integrated DNA Technologies) and cloned into pET-20b(+) as for the wild type sequence. Enzymes for cloning were purchased from New England Biolabs. Constructs were transferred to E. coli BL21(DE3) for expression. All mutations were confirmed by Sanger sequencing (Laragen and Retrogen). When necessary, 100 μg mL^−1 carbenicillin was included in all growth media to maintain selection for the plasmid. To measure the effect of PodA30-162 on phenazine production in planktonically grown P. aeruginosa, cultures were grown overnight in 5 mL volumes of tryptic soy broth (TSB) or succinate minimal medium (arginine medium recipe from Glasser et al., 2014 with 40 mM sodium succinate in place of arginine) (3) in the presence 1 μg mL^−1 PodA30-162. Cells were removed by centrifugation and supernatants were analyzed by HPLC as previously described (9). See below for a description of biofilm growth of P. aeruginosa PA14. To induce protein expression, an overnight culture was inoculated 1/1000 in Terrific Broth (BD Difco). Cultures were grown in baffled Erlenmeyer flasks (1 L culture per 3 L flask) at 37° C. with 150 rpm agitation in a shaking incubator (Innova 44 shaking incubator, New Brunswick). After 3-4 hours, the temperature was changed to 16° C. and cultures were induced with 50 μM (final concentration) IPTG and left to incubate overnight. Cells were then pelleted by centrifugation, flash frozen in liquid N2, and stored at −80° C. for up to 1 month before protein purification.

[9] = Redox potential E0' (vs. NHE) of redox-active compounds; type: physicochemical; details: measured in aqueous solution at pH 7 in this study (footnote b)
P. aeruginosa Δphz = details: 25 μM PYO; images from Ramos et al., 2010; cited from earlier work
S. aureus MN8 = details: 100 μM PYO vs absence of PYO; cited from earlier work
[10] = PYO's hydroxyl group; cited from earlier work
E. coli DH5α = details: 100 μM PYO vs absence of PYO; cited from earlier work
S. oneidensis MR1 = details: 100 μM PYO vs absence of PYO; cited from earlier work
Pa PA14 biofilms = assay: Tobramycin tolerance of Pa PA14 biofilms; type: cell-based, P. aeruginosa
Experimental: In varying the amount of added 1-OH-PHZox, it was observed a dose-dependent response: the greater the [1-OHPHZox], the greater the biofilm inhibition, yet, under these conditions, saturating at 200 μM (FIG. 20B). To set the stage for flow-cell experiments to explore PodA and 1-OH-PHZ effects on biofilm inhibition and biofilm dissolution, the time course for biofilm development was mapped for Pa PA14 constitutively expressing YFP under constant flow in a minimal medium (FIG. 20C) as previously described (Wang et al. (2011) J Bacteriol. 193(14):3606-17). In addition, an appropriate initial tobramycin concentration to use in Pa PA14 biofilm experiments was also identified to test the hypothesis that PodA or 1-OH-PHZ can sensitize biofilms to antibiotics: Pa PA14 biofilms tolerate 20 μg/ml, 10× the MIC for tobramycin for planktonic cultures, similar to what has been reported for biofilms of Pa PAO1 (Bjarnsholt et al. (2005) Microbiol-Sgm. 2005; 151:373-83).

## Oc1cccc2nc3ccccc3nc12 [1-OH-PHZ, 1-Hydroxyphenazine]
P. aeruginosa biofilm [1]
  microcolony diameter: does decrease
P. aeruginosa biofilm [1]; vs inactive E154A
  number of microcolonies formed: does not significantly affect
[2]
  log of the equilibrium constant βmlh of binding copper: 8.68
Pa PA14 biofilm; 1 μM PodA or 100 μM 1-OHPHZox, 5 h at 37° C
  biofilm biomass relative to Pa PA14 alone: ~50%
Pa PA14 biofilm; PodA 1 μM, 1-OH-PHZ 100 μM, total DAPI staining
  biofilm formation compared to untreated control: inhibit biofilm formation
Pa PA14 biofilm; dose-dependent response
  concentration at which biofilm inhibition saturates: 200 µM
[3]
  E^0, (vs. NHE): −174^a mV
[4]; 200 μM
  upregulation of genes in iron responsive pathways: 2-10 fold
[4]
  expression of small gene cluster incl. QapR regulon: upregulated modestly
P. aeruginosa biofilm [5]
  optical density of biofilm: not significantly different
PA14 [6]
  # of Redox cycles over 7 days: 14
  Support survival?: Yes
PA14 [7]
  Reduction by PA14?: Yes
[8]; minimal medium with succinate
  production of PYO: negative impact
[8]; tryptic soy broth
  phenazine production: changes to the concentrations of all four phenazines

## O=C(O)Cc1cc(O)ccc1O [Homogentisic acid (HMA), Homogentisic acid]
[9]
  E^0, (vs. NHE): +306^b mV
PA14 [6]
  # of Redox cycles over 7 days: No cycle
  Support survival?: No

## CN(C)c1ccc2nc3ccc(=[N+](C)C)cc-3sc2c1 [Methylene blue (MB), Methylene blue]
[3]
  E^0, (vs. NHE): +11 mV
[9]
  E^0, (vs. NHE): 0 mV
PA14 [6]
  # of Redox cycles over 7 days: 3
  Support survival?: No
PA14 [7]
  Reduction by PA14?: Yes

## Cn1c2cccc(=O)c-2nc2ccccc21 [PYO, Pyocyanin]
P. aeruginosa Δphz
  biofilm production of Δphz: restored
[3]
  E^0, (vs. NHE): −40^a mV
[4]; PodA 1 μM, 1-OH-PHZ 200 μM, PYO 200 μM
  log(2) changes relative to untreated control, metal scavenging and starvation response genes (FIG. 21A): ~0 log(2)
S. aureus MN8
  colony growth: decreased colony growth
PA14 [6]
  # of Redox cycles over 7 days: 31
  Support survival?: Yes
[10]
  pKa: ~5
PA14 [7]
  Reduction by PA14?: Yes
E. coli DH5α
  colony growth: decreased colony growth
S. oneidensis MR1
  colony growth: decreased colony growth

## NC[C@H]1O[C@H](O[C@H]2[C@H](O)[C@@H](O[C@H]3O[C@H](CO)[C@@H](O)[C@H](N)[C@H]3O)[C@H](N)C[C@@H]2N)[C@H](N)C[C@@H]1O [tobramycin]
Pa PA14 biofilms
  tobramycin concentration tolerated by biofilms: 20 µg/mL
  tolerated concentration relative to MIC for planktonic cultures: 10 × the MIC
